Test results as given in patent US7449494B1, “Polymeric skin moisturizing compounds” (SurfaTech Corporation, priority 2004, dated 2008).

Tested on: rough dry skin
Assay: Skin moisturization evaluation: appearance of treated skin under the dissection microscope
Format: in vivo
Settings: 5% solution applied to skin; scale of 1 to 5, 1 being poor and 5 being best
Source text: The effect of moisturization can be measured by the appearance of the skin when treated. Untreated skin that is in need of moisturization is rough, scaly and dry looking under the dissection microscope. The application of the moisturization solution to the skin and its effect upon minimizing roughness, scaling and dry appearance is a good measure of moisturization. We performed such an evaluation and rated the performance of a scale of 1 to 5. 1 being poor and 5 being best.

| SMILES | Rating (moisturization: minimizing roughness, scaling and dry appearance) |
| --- | --- |
| OCC(O)CO [Glycerin] | 2 |
| C[N+](C)(C)CCO [Choline] | 4 |
